According to patent publication US5686472A, “Inhibitors of farnesyl-protein transferase” (Merck & Co., Inc., priority 1993, dated 1997):

Tested on: not listed separately
Assay: Observation on the isolated TFA salt (hygroscopicity, stability in solution)
Format: physicochemical
Settings: not given

Row | Compound | hygroscopicity
1 | CC[C@H](C)[C@@H](CO[C@@H](Cc1ccccc1)C(=O)N[C@H]1CCOC1=O)NC[C@@H](N)CS [2(S)-[2(S)-[2(R)-Amino-3-mercapto]propylamino-3(S)-methyl]pentyloxy-3-phenylpropionyl-homoserine lactone] | hygroscopic

Same assay, conditions: left in solution and exposed to air

Row | Compound | stability (disulphide formation)
2 | CC[C@H](C)[C@@H](CO[C@@H](Cc1ccccc1)C(=O)N[C@H]1CCOC1=O)NC[C@@H](N)CS [2(S)-[2(S)-[2(R)-Amino-3-mercapto]propylamino-3(S)-methyl]pentyloxy-3-phenylpropionyl-homoserine lactone] | prone to disulphide formation if left in solution and exposed to air

Tested on: RAS farnesylation in the v-ras cell line
Assay: In vivo ras farnesylation assay (inhibition of RAS farnesylation in the v-ras cell line)
Format: cell-based
Settings: 4 h at 37° C. before labelling, additional 20 h, Table 2
Description: In vivo ras farnesylation assay
The cell line used in this assay was the v-ras line, which expressed viral Ha-ms p21. The assay was performed essentially as described in DeClue, J. E. et. al., Cancer Research 51, 712-717, (1991). Cells in 10 cm dishes at 50-75% confluency were treated with the test compound (final concentration of solvent, methanol or dimethyl sulfoxide, was 0.1%). After 4 hours at 37° C., the cells were labelled in 3 ml methionine-free DMEM supplemented with 10% regular DMEM, 2% fetal bovine serum and 400 μCi[^35 S]methionine (1000 Ci/mmol). After an additional 20 hours, the cells were lysed in 1 ml lysis buffer (1% NP40/20 mM HEPES, pH 7.5/5 mM Mg/Cl2 /1mM DTT/10 μg/ml aprotinen/2 μg/ml leupeptin/2 μg/ml antipain/0.5 mM PMSF) and the lysates cleared by centrifugation at 100,000×g for 45 minutes. Aliquots of lysates containing equal numbers of acid-precipitable counts were bought to 1 ml with IP buffer (lysis buffer lacking DTT) and immunoprecipitated with the ras-specific monoclonal antibody Y13-259 (Furth, M. E. et. al., J. Virol. 43, 294-304, (1982)). Following a 2 hour antibody incubation at 4° C., 200 μl of a 25% suspension of protein A-Sepharose coated with rabbit anti rat IgG was added for 45 minutes. The immunoprecipitates were washed four times with IP was buffer ([…] HEPES, pH 7.5/1 mN EDTA/1% Triton X-100.0.5% deoxycholate/0.1%/SDS.0.1M NaCl) boiled in SDS-Page sample buffer and loaded on 13% acrylamide gels. When the dye front reached the bottom, the gel was fixed, soaked in Enlightening, dried and autoradiographed. The intensities of the bands corresponding to farnesylated and nonfarnesylated ras proteins were compared to determine the percent inhibition of farnesyl transfer to protein.

Row | Compound | IC50 [nM]
3 | CC[C@H](C)[C@@H](CO[C@@H](Cc1ccccc1)C(=O)N[C@@H](CCS(C)(=O)=O)C(=O)OC(C)C)NC[C@@H](N)CS [2(S)-[2(S)-[2(R)-Amino-3-mercapto]-propylamino-3(S)-methyl]pentyloxy-3-phenylpropionyl-methionine sulfone isopropyl ester] | 100
4 | C=CC[C@H](OC[C@@H](NC[C@@H](N)CS)[C@@H](C)CC)C(=O)N[C@H]1CCOC1=O [2(S)-[2(S)-[2(R)-Amino-3-mercapto]propylamino-3(S)-methyl]-pentyloxy-4-pentenoyl-homoserine lactone] | 10000
5 | CC[C@H](C)[C@@H](CO[C@@H](CC(C)C)C(=O)N[C@H]1CCOC1=O)NC[C@@H](N)CS [2(S)-[2(S)-[2(R)-Amino-3-mercapto]propylamino-3(S)-methyl]pentyloxy4-methylpentanoyl-homoserine lactone] | 10000
6 | CC[C@H](C)[C@@H](CO[C@@](C)(Cc1ccccc1)C(=O)N[C@H]1CCOC1=O)NC[C@@H](N)CS [2(S)-[2(S)-[2(R)-Amino-3-mercapto]propylamino-3(S)-methyl]pentyloxy-2-methyl-3-phenylpropionyl-homoserine lactone] | 50000
7 | CC[C@H](C)[C@@H](CO[C@@H](Cc1ccccc1)C(=O)N[C@H]1CCOC1=O)NC[C@@H](N)CS [2(S)-[2(S)-[2(R)-Amino-3-mercapto]propylamino-3(S)-methyl]pentyloxy-3-phenylpropionyl-homoserine lactone] | 2500
8 | CC[C@H](C)[C@@H](CO[C@@H](Cc1ccccc1)C(=O)N[C@@H](CCSC)C(=O)OC)NC[C@@H](N)CS [2(S)-[2(S)-[2(R)-Amino-3-mercapto]propylamino-3(S)-methyl]pentyloxy-3-phenylpropionyl-methionine methyl ester] | 100
9 | CC[C@H](C)[C@@H](CO[C@@H](Cc1ccccc1)C(=O)N[C@@H](CCS(C)(=O)=O)C(=O)OC)NC[C@@H](N)CS [2(S)-[2(S)-[2(R)-Amino-3-mercapto]propylamino-3(S)-methyl]pentyloxy-3-phenylpropionyl-methionine sulfone methyl ester] | 100
10 | CCC[C@H](OC[C@@H](NC[C@@H](N)CS)[C@@H](C)CC)C(=O)N[C@H]1CCOC1=O [2(S)-[2(S)-[2(R)-Amino-3-mercapto]propylamino-3(S)-methyl]pentyloxy-pentanoyl-homoserine lactone] | 10000

Molecular target: recombinant human farnesyl transferase (Homo sapiens, UniProt P49354+P49356)
Assay: In vitro inhibition of ras farnesyl transferase
Format: biochemical
Settings: concentration of test compound giving 50% inhibition of FTase, Table 1, read-out: IC50 (inhibition of RAS farnesylation)
Description: In vitro inhibition of ras farnesyl transferase
The assay was conducted as described in Pompliano, et. al., Biochemistry 31, 3800 (1992) with the exception of utilizing recombinant human farnesyl transferase in place of the partially purified bovine enzyme described therein.
*(IC50 is the concentration of the test compound which gives 50%
inhibition of FTase under the described assay conditions.

Row | Compound | IC50 [nM]
11 | C=CC[C@H](OC[C@@H](NC[C@@H](N)CS)[C@@H](C)CC)C(=O)N[C@@H](CCO)C(=O)O | 18
12 | CC[C@H](C)[C@@H](CO[C@@H](Cc1ccccc1)C(=O)N[C@@H](CCS(C)(=O)=O)C(=O)O)NC[C@@H](N)CS [2(S)-[2(S)-[2(R)-Amino-3-mercapto]propylamino-3(S)-methyl]-pentyloxy-3-phenylpropionyl-methionine sulfone] | 2.2
13 | CCC[C@H](OC[C@@H](NC[C@@H](N)CS)[C@@H](C)CC)C(=O)N[C@@H](CCO)C(=O)O [2(S)-[2(S)-[2(R)-Amino-3-mercapto]propylamino-3(S)-methyl]-pentyloxy-pentanoyl-homoserine] | 7
14 | CC[C@H](C)[C@@H](CS(=O)(=O)[C@@](C)(Cc1ccccc1)C(=O)N[C@@H](CCO)C(=O)O)NC[C@@H](N)CS [2(S)-[2(S)-[2(R)-Amino-3-mercapto]propylamino-3(S)-methyl]pentyl-sulfonyl-2-methyl-3-phenylpropionyl-homo-serine] | 980
15 | CC[C@H](C)[C@@H](CO[C@@](C)(Cc1ccccc1)C(=O)N[C@@H](CCO)C(=O)O)NC[C@@H](N)CS [2(S)-[2(S)-[2(R)-Amino-3-mercapto]propylamino-3(S)-methyl]pentyloxy-2-methyl-3-phenylpropionyl-homoserine] | 7
16 | CC[C@H](C)[C@@H](CO[C@H](C(=O)N[C@@H](CCO)C(=O)O)C(C)C)NC[C@@H](N)CS [2(S)-[2(S)-[2(R)-Amino-3-mercapto]propylamino-3(S)-methyl]pentyloxy-3-methylbutanoyl-homoserine] | 1.4
17 | CC[C@H](C)[C@@H](CO[C@H](C(=O)N[C@@H](CCO)C(=O)O)C(C)c1ccccc1)NC[C@@H](N)CS (stereo partly drawn) [2(S)-[2(S)-[2(R)-Amino-3-mercapto]propylamino-3(S)-methyl]pentyloxy-3-phenylbutanoyl-homoserine] | 17
18 | CC[C@H](C)[C@@H](CO[C@@H](Cc1ccccc1)C(=O)N[C@@H](CCO)C(=O)O)NC[C@@H](N)CS [2(S)-[2(S)-[2(R)-Amino-3-mercapto]propylamino-3(S)-methyl]pentyloxy-3-phenylpropionyl-homoserine] | 5
19 | CC[C@H](C)[C@@H](CO[C@@H](Cc1ccccc1)C(=O)N[C@@H](CCSC)C(=O)O)NC[C@@H](N)CS [2(S)-[2(S)-[2(R)-Amino-3-mercapto]propylamino-3(S)-methyl]pentyloxy-3-phenylpropionyl-methionine] | 4
20 | CC[C@H](C)[C@@H](CO[C@@H](CC(C)C)C(=O)N[C@@H](CCO)C(=O)O)NC[C@@H](N)CS [2(S)-[2(S)-[2(R)-Amino-3-mercapto]propylamino-3(S)-methyl]pentyloxy-4-methylpentanoyl-homoserine] | 19
21 | CC[C@H](C)[C@@H](CS[C@@](C)(Cc1ccccc1)C(=O)N[C@@H](CCO)C(=O)O)NC[C@@H](N)CS [2(S)-[2(S)-[2(R)-Amino-3-mercapto]propylamino-3(S)-methyl]pentylthio-2-methyl-3-phenylpropionyl-homoserine] | 240
